We go through 1 compound from US5446025A, “Formulations and method of the percutaneous administration of leuprolide” (Abbott Laboratories, priority 1992, dated 1995).

The format of this data set is physicochemical. The protocol:
Partitioning studies of leuprolide free base and the acetate, palmitate, and decanesulfonate salts were conducted in Type I glass culture tubes fitted with poly(tetrafluroethylene)-lined caps. Octanol-saturated water was used to prepare solutions of leuprolide free base and the leuprolide salts at concentrations of 500 μg/ml. Ten ml of each solution and 10 ml of water-saturated octanol were placed in the glass tubes which were then tightly capped and shaken for 24 hours at 30° C. At the end of this time, the tubes were centrifuged at 2000 rpm for ten minutes. The water and octanol layers were separated and each analyzed for the concentrations of leuprolide or leuprolide salt. The octanol-water distribution coefficients, Kd, was calculated from the ratio of concentration in the non-aqueous phase and the aqueous phase.

Regarding `CCNC(=O)[C@@H]1CCCN1C(=O)[C@H](CCCNC(=N)N)NC(=O)[C@H](CC(C)C)NC(=O)[C@@H](CC(C)C)NC(=O)[C@H](Cc1ccc(O)cc1)NC(=O)[C@H](CO)NC(=O)[C@H](Cc1c[nH]c2ccccc12)NC(=O)[C@H](Cc1c[nH]cn1)NC(=O)[C@@H]1CCC(=O)N1` [Leuprolide free base, leuprolide], the “Lipophilicity relative to the acetate salt, as measured by the octanol/water distribution coefficient” value is reported as “roughly six”.
